Test results: US10350164B2, “Process for preparing a dry powder formulation comprising an anticholinergic, a corticosteroid and a beta-adrenergic” (CHIESI FARMACEUTICI S.p.A., priority 2017, dated 2019)

Columns and labels:
Format in all cases: physicochemical
[1] = Aerosol performance by Next Generation Impactor (NGI) from multidose dry powder inhaler; conditions: for Mid Fine Particle Mass: between 2.0 and 5.0 micron; for Fine Particle Mass: particle size equal to or lower than 5.0 micron
Procedure: It is calculated by the percentage ratio of the fine particle mass (formerly fine particle dose) to the delivered dose.
The delivered dose is calculated from the cumulative deposition in the apparatus, while the fine particle mass is calculated from the deposition of particles having a diameter <5.0 microns.
After aerosolization of 3 doses from the inhaler device, the NGI apparatus was disassembled and the amounts of drug deposited in the stages were recovered by washing with a solvent mixture and then quantified by High-Performance Liquid Chromatography (HPLC).

[2] = Recrystallization water by Dynamic Vapour Sorption (DVS)
Procedure: (§1) Co-micronized microparticles and reference micronized glycopyrronium bromide were exposed to the following conditions:
(§2) Thin layer (˜0.5 cm) in open tray for 3 days at 30° C./65% relative humidity (RH);
(§3) Thin layer (˜0.5 cm) in open tray for 4 hours at 25° C./90% RH
(3) recrystallization of water using a Dynamic Vapour Sorption (DVS) instrument (Mettler Toledo GmbH, Switzerland).

[3] = Particle size distribution (PSD) by Malvern analysis, initially and after open-tray exposure
Procedure: The size of the particles active is determined by measuring the characteristic equivalent sphere diameter, known as volume diameter, by laser diffraction. […] However, other equivalent apparatus may be used.
as §2, §3
(i) particle size distribution (PSD) in terms of d(v0.1), d(v0.5) and d(v0.9) by Malvern analysis, […]

[4] = Specific Surface Area (SSA) by BET nitrogen adsorption
Procedure: as §1, §2, §3
(2) Specific Surface Area (SSA) by Brunauer-Emmett-Teller (BET) nitrogen adsorption method according to a known procedure, and […]

[5] = Uniformity of distribution of the active ingredients in the blend by HPLC
Procedure: It is usually determined according to known methods, for instance by taking samples from different parts of the powder and testing the component by HPLC or other equivalent analytical methods.
The uniformity of distribution of the active ingredients was evaluated by withdrawing 12 samples from different parts of the blend and evaluated by HPLC.

[6] = Example 3 formulation (6/100/12.5 μg)
[7] = Example 4 formulation (6/100/25 μg)
[8] = Open thin layer 3 days at 30° C./65% RH
[9] = Open thin layer 4 hours at 25° C./90% RH

C[N+]1(C)CCC(OC(=O)C(O)(c2ccccc2)C2CCCC2)C1 (racemic) [GB, glycopyrronium bromide]
Extrafine Particle Fraction <1 μm [1, 6]: 15.4%
Extrafine Particle Fraction <2 μm [1, 6]: 37.6%
Extrafine Particle Mass <1 μm [1, 6]: 1.8 µg
Extrafine Particle Mass <2 μm [1, 6]: 4.39 µg
Fine Particle Fraction [1, 6]: 67.2%
MMAD [1, 6]: 1.92 μm
Mid Fine particle Fraction [1, 6]: 29.6%
Mid Fine Particle Mass [1, 6]: 3.46 µg
Delivered Dose ([1]; Example 3 formulation (6/100/12.5 μg), mean±S.D): 11.66 (±0.4) μg
Fine Particle Mass [1, 6]: 7.85 µg
Delivered Dose [1, 7]: 21.30 µg
Extrafine Particle Fraction <1 μm [1, 7]: 8.2%
Extrafine Particle Fraction <2 μm [1, 7]: 25.8%
Extrafine Particle Mass <1 μm [1, 7]: 1.75 µg
Extrafine Particle Mass <2 μm [1, 7]: 5.49 µg
Fine Particle Fraction [1, 7]: 50.7%
MMAD [1, 7]: 2.15 μm
Mid Fine particle Fraction [1, 7]: 27.9%
Mid Fine Particle Mass [1, 7]: 5.94 µg
Fine Particle Mass [1, 7]: 10.8 µg
Re-crystallization water ([2]; Initial): 0.12 % w/w
Re-crystallization water [2, 8]: 0.02% w/w
PSD D(v0.9) ([3]; Initial): 3.95 μm
PSD d(v0.1) ([3]; Initial): 0.60 μm
PSD d(v0.5) ([3]; Initial): 1.54 μm
PSD D(v0.9) [3, 9]: 1657 μm
PSD d(v0.1) [3, 9]: 2.74 μm
PSD d(v0.5) [3, 9]: 156 μm
PSD D(v0.9) [3, 8]: 7.59 μm
PSD d(v0.1) [3, 8]: 1.00 μm
PSD d(v0.5) [3, 8]: 3.91 μm
SSA ([4]; Initial): 7.31 m^2/g
SSA [4, 8]: 1.85 m^2/g

CCC(=O)OCC(=O)[C@@]1(OC(=O)CC)[C@@H](C)C[C@H]2[C@@H]3CCC4=CC(=O)C=C[C@]4(C)[C@@]3(Cl)[C@@H](O)C[C@@]21C [BDP, beclometasone dipropionate]
Uniformity of distribution ([5]; Example 3 formulation (FF 6 μg/BDP 100 μg/GB 12.5 μg per 10 mg carrier), 12 samples, mean value±RSD): 101.8 (±1.1)
Uniformity of distribution ([5]; Example 4 formulation (FF 6 μg/BDP 100 μg/GB 25 μg per 10 mg carrier)): 100.2 (±1.2)
